Reference: patent US20100069480A1, “METHODS AND COMPOSITIONS FOR THE TREATMENT OF CANCER” (Bionovo, Inc. A Delaware Corporation, priority 2008, published 2010)

Assays:
Type in all cases: cell-based, human
[1] = tested on: MDA MB 231 and SKBr3 breast cancer cells; assay: induction of ROS, CM-H2DCFDA fluorescence; conditions: for induction of cellular ROS: CM-H2DCFDA probe
Protocol: (§1) The following parameters were examined: • 1. Induction of the loss of the mitochondrial transmembrane potential (MTP). […] Induction of reactive oxygen species (ROS). Induced fluorescence from the cell permeable indicators of ROS such as dihydroethidium (specific for superoxide) (FIG. 2), CM-H2DCFDA (most types of ROS) (FIG. 1) and MitoSOX (mitochondrially derived superoxide) (FIG. 3) was studied using a fluorescent plate reader and FACS. • 3. Compounds were also tested for the potential cellular sources of ROS induced using either specific indicators for ROS of mitochondrial origin, and/or specific inhibitors of ROS production by known sources such as mitochondria, ubiquinone oxidoreductase NQO (mitochondrial complex I) and NADPH oxidases. • 4. Compounds were tested for induction of DNA damage using test known as comet assay that allows detection of DNA damage in individual cells. (FIG. 4) • 5. The induction of death in cells treated with the compounds was examined using propidium iodide test for cell permeability followed by analysis on FACS. • 6. The mode of cell death (i.e., apoptosis versus necrosis) was studied using several criteria: conversion of cells to positivity for binding Annexin V; DNA fragmentation (characteristic of apoptotic death) and decrease in cellular ATP levels (commonly observed during necrotic death) (FIG. 5). […]
DCFDA is nonfluorescent in reduced form and is readily membrane-permeant. Cellular esterases cleave its acetate groups. The thiol-reactive chloromethyl group then binds to cellular thiols, trapping the dye inside the cell, where oxidation converts it to the fluorescent form. CM-H2DCFDA is oxidized by cellular hydrogen peroxide, hydroxyl radicals, and various free radical products lying downstream from hydrogen peroxide. It is relatively insensitive to oxidation by superoxide. However, because hydrogen peroxide is produced by dismutation of superoxide, CM-H2DCFDA serves as an indirect indicator of superoxide production.
FIG. 1. […] The indicated compounds were added to cells at 20 μg/ml growth medium, followed by addition of 10 μM CM-H2 DCFDA. Inhibitor of mitochondrial respiration, NaN3, was added at 10 mM. After 30 minute incubation, cells were washed in PBS and analyzed on FACScan for fluorescence.

[2] = tested on: MDA MB 231 and SKBr3 breast cancer cells; assay: DNA damage, comet assay
Protocol: as §1

[3] = tested on: MDA MB 231 and SKBr3 breast cancer cells; assay: mode of cell death: Annexin V binding, DNA fragmentation
Protocol: The following parameters were examined: • 1. Induction of the loss of the mitochondrial transmembrane potential (MTP). […] Induction of reactive oxygen species (ROS). Induced fluorescence from the cell permeable indicators of ROS such as dihydroethidium (specific for superoxide) (FIG. 2), CM-H2DCFDA (most types of ROS) (FIG. 1) and MitoSOX (mitochondrially derived superoxide) (FIG. 3) was studied using a fluorescent plate reader and FACS. • 3. Compounds were also tested for the potential cellular sources of ROS induced using either specific indicators for ROS of mitochondrial origin, and/or specific inhibitors of ROS production by known sources such as mitochondria, ubiquinone oxidoreductase NQO (mitochondrial complex I) and NADPH oxidases. • 4. Compounds were tested for induction of DNA damage using test known as comet assay that allows detection of DNA damage in individual cells. (FIG. 4) • 5. The induction of death in cells treated with the compounds was examined using propidium iodide test for cell permeability followed by analysis on FACS. • 6. The mode of cell death (i.e., apoptosis versus necrosis) was studied using several criteria: conversion of cells to positivity for binding Annexin V; DNA fragmentation (characteristic of apoptotic death) and decrease in cellular ATP levels (commonly observed during necrotic death) (FIG. 5). 1. Induction of the loss of the mitochondrial transmembrane potential (MTP). […] Induction of reactive oxygen species (ROS). Induced fluorescence from the cell permeable indicators of ROS such as dihydroethidium (specific for superoxide) (FIG. 2), CM-H2DCFDA (most types of ROS) (FIG. 1) and MitoSOX (mitochondrially derived superoxide) (FIG. 3) was studied using a fluorescent plate reader and FACS. • 3. Compounds were also tested for the potential cellular sources of ROS induced using either specific indicators for ROS of mitochondrial origin, and/or specific inhibitors of ROS production by known sources such as mitochondria, ubiquinone oxidoreductase NQO (mitochondrial complex I) and NADPH oxidases. • 4. […]

[4] = tested on: MDA MB 231 and SKBr3 breast cancer cells; assay: cellular ATP content, ATP bioluminescence assay
Protocol: (§2) The following parameters were examined: • 1. Induction of the loss of the mitochondrial transmembrane potential (MTP). […] Induction of reactive oxygen species (ROS). Induced fluorescence from the cell permeable indicators of ROS such as dihydroethidium (specific for superoxide) (FIG. 2), CM-H2DCFDA (most types of ROS) (FIG. 1) and MitoSOX (mitochondrially derived superoxide) (FIG. 3) was studied using a fluorescent plate reader and FACS. • 3. Compounds were also tested for the potential cellular sources of ROS induced using either specific indicators for ROS of mitochondrial origin, and/or specific inhibitors of ROS production by known sources such as mitochondria, ubiquinone oxidoreductase NQO (mitochondrial complex I) and NADPH oxidases. • 4. Compounds were tested for induction of DNA damage using test known as comet assay that allows detection of DNA damage in individual cells. (FIG. 4) • 5. The induction of death in cells treated with the compounds was examined using propidium iodide test for cell permeability followed by analysis on FACS. • 6. […] Induced fluorescence from the cell permeable indicators of ROS such as dihydroethidium (specific for superoxide) (FIG. 2), CM-H2DCFDA (most types of ROS) (FIG. 1) and MitoSOX (mitochondrially derived superoxide) (FIG. 3) was studied using a fluorescent plate reader and FACS. • 3. […]

[5] = tested on: MDA MB 231 and SKBr3 breast cancer cells; assay: mitochondrially derived superoxide, MitoSOX
Protocol: as §2

[6] = Table 11, confirmed in two breast cancer cell lines

| Compound | Induction of ROS (fold) [1, 6] [fold] | induction of cellular ROS [1] | induction of DNA damage [2] | cell death and its mode [3] | Induction of ROS (fold) ([1]; Table 12) | change in cellular ATP levels [4] | conversion of MitoSOX, detector of mitochondrially derived superoxide [5] | Induction of ROS (fold) ([1]; Table 11, confirmed in two breast cancer cell lines, listed as cmpd 9) |
| --- | --- | --- | --- | --- | --- | --- | --- | --- |
| O=c1cc(-c2ccc(O)cc2)oc2cc(O)cc(O)c12 [cmpd 4] | 0.6 | – | – | – | – | – | – | – |
| O=C1CC(c2ccc(O)cc2)Oc2cc(O)c(O)c(O)c21 (centres unmarked) [Carthamidin] | – | induce ROS, but of extra-mitochondrial origin | induce DNA damage | – | – | – | – | – |
| O=c1cc(-c2ccc(O)cc2)oc2c(O)c(O)cc(O)c12 [Isoscutellarein] | 1.5 | induce ROS, but of extra-mitochondrial origin | induce DNA damage | cell death that has hallmarks of programmed necrosis | 1.5 | – | – | – |
| O=c1cc(-c2ccc(O)cc2)oc2cc(O)cc(O)c12 [Apigenin] | – | – | do not induce DNA damage | induce significant cell death characterized as apoptotic | 1.5 | slight but consistent increase in ATP levels | converted to its fluorescent form | 1.5 |
| O=C1CC(c2ccc(O)cc2)Oc2c(O)c(O)cc(O)c21 (centres unmarked) [Isocarthamidin] | – | induce ROS, but of extra-mitochondrial origin | induce DNA damage | – | – | – | – | – |
| O=c1cc(-c2ccc(O)cc2)oc2cc(O)c(O)c(O)c12 [Scutellarein] | 2.4 | induce ROS, but of extra-mitochondrial origin | induce DNA damage | cell death that has hallmarks of programmed necrosis | – | – | – | – |
